The source of these data is patent EP1211505A1, “METHOD FOR MEASURING SUBSTANCE AND M[…] TO BE USED IN THE METHOD” (Asahi Kasei Kabushiki Kaisha, priority 1999, dated 2001).

The nature of series [1]: Solubility of BCIP / BCI2. The series is classed as physicochemical. To be noted: buffer 1: 1.01 M 2-ethylaminoethanol-HCl/0.505 mM MgCl2 (pH 9.87). As to the method: The solubility of BCIP in the buffer 1 is about 70 mM. In order to obtain the optimum concentration of BCIP, first an ALP measurement reagent was prepared by dissolving BCIP in the buffer 1 to give a final concentration of 70 mM, and then the prepared reagent was diluted with the buffer 1 step by step to prepare ALP measurement reagents having BCIP final concentrations of 70 mM, 35 mM, 15 mM, 10 mM, 6.25 mM, 5 mM, 2.5 mM and 1.25 mm, respectively.

The conditions of series [2]: in the form of a sodium salt, cited from earlier work.

Structures are written as SMILES. Like-named read-outs stand apart in the source and are kept apart here.

As for `O=P(O)(O)Oc1c[nH]c2ccc(Br)c(Cl)c12` [BCIP, 5-bromo-4-chloro-3-indoxyl phosphate], the “solubility of BCIP in the buffer 1” value in series [1] is listed as “about 70 mM”. The “solubility of BCIP in pure water” value was 54 mM in series [2] (same value expressed in mM) and 20 mg/mL in series [2].
